# Laboratory results published in ChEMBL document CHEMBL2401685 (Bioorg Med Chem Lett, 2013).
# The source made the active and inactive calls. The calls are words filed in the database; no cut-off is given here.
# What was measured:
# [1] = target: T1, 11-beta-hydroxysteroid dehydrogenase type 2 (Homo sapiens) (UniProt P80365); test: Inhibition of 11beta-HSD2 in human kidney microsomes using [3H]-cortisol as substrate assessed as formation of cortisone at 100 uM after 30 mins by radiometric analysis relative to control; conditions: Microsome
# T1 sequence (whole entry): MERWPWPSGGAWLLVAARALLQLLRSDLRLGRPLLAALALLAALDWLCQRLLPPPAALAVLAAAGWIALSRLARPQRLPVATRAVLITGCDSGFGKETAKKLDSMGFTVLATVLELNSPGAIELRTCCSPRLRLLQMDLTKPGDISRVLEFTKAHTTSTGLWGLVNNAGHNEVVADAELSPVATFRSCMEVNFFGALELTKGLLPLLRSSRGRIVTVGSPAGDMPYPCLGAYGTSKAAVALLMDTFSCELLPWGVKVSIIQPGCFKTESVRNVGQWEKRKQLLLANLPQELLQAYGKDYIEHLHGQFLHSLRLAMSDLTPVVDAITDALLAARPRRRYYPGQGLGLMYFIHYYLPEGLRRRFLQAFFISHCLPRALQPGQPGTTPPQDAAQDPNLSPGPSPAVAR
# [2] = target: T2, 11-beta-hydroxysteroid dehydrogenase type 2 (Rattus norvegicus) (UniProt P50233); test: Inhibition of 11beta-HSD2 in rat kidney microsomes using [3H]-CORT as substrate assessed as formation of 11-DHC at 100 uM after 30 mins by radiometric analysis relative to control; conditions: Microsome
# T2 sequence (whole entry): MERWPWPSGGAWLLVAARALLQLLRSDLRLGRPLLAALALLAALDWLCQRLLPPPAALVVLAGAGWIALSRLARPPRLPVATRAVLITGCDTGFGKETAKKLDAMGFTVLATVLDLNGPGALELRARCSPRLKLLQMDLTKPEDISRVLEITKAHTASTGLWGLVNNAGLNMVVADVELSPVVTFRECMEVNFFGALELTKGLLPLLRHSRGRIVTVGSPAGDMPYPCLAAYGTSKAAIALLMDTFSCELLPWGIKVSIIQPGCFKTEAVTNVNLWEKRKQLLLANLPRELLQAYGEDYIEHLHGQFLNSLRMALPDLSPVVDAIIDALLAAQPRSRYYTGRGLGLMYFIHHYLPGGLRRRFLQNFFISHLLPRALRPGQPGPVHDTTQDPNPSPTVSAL
# [3] = target: T3, 11-beta-hydroxysteroid dehydrogenase 1 (Homo sapiens, UniProt P28845); test: Inhibition of human 11beta-HSD1 transfected in CHOP cells at 100 uM relative to control; assay type: cell-based
# Target sequence in this assay (P28845 whole entry, looked up): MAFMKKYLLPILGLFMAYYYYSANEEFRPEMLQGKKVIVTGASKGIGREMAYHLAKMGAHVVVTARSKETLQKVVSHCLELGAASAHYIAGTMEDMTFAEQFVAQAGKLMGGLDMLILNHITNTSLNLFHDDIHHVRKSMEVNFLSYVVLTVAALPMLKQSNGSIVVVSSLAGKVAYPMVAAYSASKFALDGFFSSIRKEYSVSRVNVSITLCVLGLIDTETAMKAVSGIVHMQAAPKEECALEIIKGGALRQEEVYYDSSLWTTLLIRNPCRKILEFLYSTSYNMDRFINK
# [4] = target: 11-beta-hydroxysteroid dehydrogenase 1 (Rattus norvegicus) (UniProt P16232); test: Inhibition of 11beta-HSD1 in Sprague-Dawley rat leydig cells […] relative to control; conditions: 100 uM
# [5] = target: 11-beta-hydroxysteroid dehydrogenase 1 (Rattus norvegicus) (UniProt P16232); test: Inhibition of 11beta-HSD1 in rat testis microsomes using [3H]-11-DHC as substrate assessed as formation of CORT at 100 uM after 60 to 90 mins by radiometric analysis relative to control; conditions: Microsome
# [6] = target: T3, 11-beta-hydroxysteroid dehydrogenase 1; test: Inhibition of 11beta-HSD1 in human liver microsomes using [3H]-cortisone as substrate assessed as formation of cortisol at 100 uM after 60 to 90 mins by radiometric analysis relative to control; conditions: Microsome
# Target sequence in this assay (P28845 whole entry, looked up): as above
# J774.A1 = test: Antiinflammatory activity in mouse J774A1 cells assessed as LPS-induced TNFalpha production at 10 uM incubated 2 hrs prior to LPS challenge measured after 24 hrs by ELISA relative to vehicle-treated control; assay type: functional
# [7] = target: T3, 11-beta-hydroxysteroid dehydrogenase 1; test: Inhibition of 11beta-HSD1 in human liver microsomes using [3H]-cortisone as substrate assessed as formation of cortisol after 60 to 90 mins by radiometric analysis; design: species or system Microsome
# Target sequence in this assay (P28845 whole entry): as the sequence (P28845 whole entry, looked up) above
# [8] = target: T3, 11-beta-hydroxysteroid dehydrogenase 1; test: Inhibition of human 11beta-HSD1 transfected in CHOP cells; assay type: cell-based
# Target sequence in this assay (P28845 whole entry): as the sequence (P28845 whole entry, looked up) above
# [9] = target: T3, 11-beta-hydroxysteroid dehydrogenase 1; test: Ratio of curcumin IC50 to compound IC50 for human 11beta-HSD1 transfected in CHOP cells; assay type: cell-based
# Target sequence in this assay (P28845 whole entry, looked up): as above
# [10] = target: T4, 11-beta-hydroxysteroid dehydrogenase 1 (Rattus norvegicus, UniProt P16232); test: Inhibition of 11beta-HSD1 in Sprague-Dawley rat leydig cells […]
# [11] = target: T4, 11-beta-hydroxysteroid dehydrogenase 1; test: Inhibition of 11beta-HSD1 in rat testis microsomes using [3H]-11-DHC as substrate assessed as formation of CORT after 60 to 90 mins by radiometric analysis; design: species or system Microsome
# T4 sequence (P16232 whole entry): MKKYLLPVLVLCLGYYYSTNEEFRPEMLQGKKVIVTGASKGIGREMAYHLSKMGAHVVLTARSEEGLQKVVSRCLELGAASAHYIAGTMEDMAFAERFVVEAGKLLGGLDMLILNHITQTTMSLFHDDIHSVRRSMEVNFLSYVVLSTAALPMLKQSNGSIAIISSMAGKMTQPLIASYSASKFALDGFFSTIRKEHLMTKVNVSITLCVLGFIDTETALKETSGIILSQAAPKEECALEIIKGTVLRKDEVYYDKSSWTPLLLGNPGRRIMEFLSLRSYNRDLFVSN
# Chain of 11-beta-hydroxysteroid dehydrogenase 1 (Rattus norvegicus) (P16232 whole entry, looked up): as the sequence (P16232 whole entry) above
inhibition [1] [%],inhibition [2] [%],inhibition [3] [%],inhibition [4] [%],inhibition [5] [%],inhibition [6] [%],IC50 [7] [µM],IC50 [8] [µM],Ratio IC50 [9],IC50 [10] [µM],IC50 [11] [µM],Compound,inhibition (J774.A1)
0,15,23,10,9,28,–,–,–,–,–,C=CCOc1ccc(/C=C2\CC/C(=C\c3ccc(OCC=C)cc3)C2=O)cc1,–
0,13,29,10,0,24,–,–,–,–,–,CN(C)c1ccc(/C=C/C(=O)/C=C/c2ccc(N(C)C)cc2)cc1,inactive
6,8,16,6,15,7,–,–,–,–,–,C=CCOc1ccc(/C=C2\CCC/C(=C\c3ccc(OCC=C)c(OC)c3)C2=O)cc1OC,–
44,7,–,–,41,–,4.42,0.832,5,0.986,–,O=C(/C=C/c1ccc(O)cc1)/C=C/c1ccc(O)cc1,–
5,9,31,18,12,16,–,–,–,–,–,COc1cc(/C=C2\CC/C(=C\c3cc(OC)c(OC)c(OC)c3)C2=O)cc(OC)c1OC,inactive
13,24,54,–,13,36,–,–,–,17.2,–,O=C(/C=C/c1ccc(OC2CCCCO2)cc1)/C=C/c1ccc(OC2CCCCO2)cc1 (configuration not stated),inactive
39,35,–,–,–,–,70.9,0.257,5,0.292,16.1,COc1cc(/C=C/C(=O)/C=C/c2ccc(O)c(OC)c2)ccc1O,–
8,27,9,–,7,36,–,–,–,9.95,–,CCOc1ccc(/C=C/C(=O)/C=C/c2ccc(OCC)cc2)cc1,–
0,11,26,18,13,26,–,–,–,–,–,COc1cc(/C=C2\CC/C(=C\c3ccc(OC4CCCCO4)c(OC)c3)C2=O)ccc1OC1CCCCO1 (configuration not stated),inactive
0,24,–,–,63,–,1.94,0.195,5,0.633,–,O=C1/C(=C/c2ccc(O)cc2)CCC/C1=C\c1ccc(O)cc1,–
0,1,16,13,0,15,–,–,–,–,–,CN(C)c1ccc(/C=C2\CC/C(=C\c3ccc(N(C)C)cc3)C2=O)cc1,inactive
0,13,9,22,11,30,–,–,–,–,–,O=C1/C(=C/c2ccc(OC3CCCCO3)cc2)CC/C1=C\c1ccc(OC2CCCCO2)cc1 (configuration not stated),inactive
1,11,40,5,0,16,–,–,–,–,–,COc1cc(/C=C/C(=O)/C=C/c2cc(OC)c(OC)c(OC)c2)cc(OC)c1OC,inactive
11,14,16,26,17,17,–,–,–,–,–,CCOc1ccc(/C=C2\CCC/C(=C\c3ccc(OCC)cc3)C2=O)cc1,–
6,14,40,8,–,37,–,–,–,–,65.4,COc1cc(/C=C2\CCC/C(=C\c3ccc(OC4CCCCO4)c(OC)c3)C2=O)ccc1OC1CCCCO1 (configuration not stated),–
26,22,–,–,2,37,–,0.507,9,0.229,–,O=C(/C=C/c1ccc(F)cc1)/C=C/c1ccc(F)cc1,inactive
13,19,1,18,9,14,–,–,–,–,–,C=CCOc1ccc(/C=C/C(=O)/C=C/c2ccc(OCC=C)c(OC)c2)cc1OC,–
24,12,49,–,2,15,–,–,–,4.17,–,CN(C)CCCOc1ccc(/C=C2\CC/C(=C\c3ccc(OCCCN(C)C)cc3)C2=O)cc1,–
36,22,–,–,–,–,6.11,0.144,9,1.45,2.88,O=C1/C(=C/c2ccccc2Br)CC/C1=C\c1ccccc1Br,–
21,20,26,37,16,14,–,–,–,–,–,CN(C)c1ccc(/C=C2\CCC/C(=C\c3ccc(N(C)C)cc3)C2=O)cc1,inactive
0,16,28,–,19,28,–,–,–,52.5,–,COc1cc(/C=C/C(=O)/C=C/c2ccc(OC3CCCCO3)c(OC)c2)ccc1OC1CCCCO1 (configuration not stated),–
0,5,24,22,2,23,–,–,–,–,–,O=C1/C(=C/c2cccc(C(F)(F)F)c2F)CC/C1=C\c1cccc(C(F)(F)F)c1F,–
0,17,12,21,32,39,–,–,–,–,–,O=C1/C(=C/c2ccc(O)cc2)CC/C1=C\c1ccc(O)cc1,–
13,34,17,19,52,49,–,–,–,–,–,COc1cc(/C=C2\CC/C(=C\c3ccc(O)c(OC)c3)C2=O)ccc1O,–
10,0,31,17,14,13,–,–,–,–,–,C=CCOc1ccc(/C=C2\CC/C(=C\c3ccc(OCC=C)c(OC)c3)C2=O)cc1OC,–
2,16,4,22,0,35,–,–,–,–,–,C=CCOc1ccc(/C=C/C(=O)/C=C/c2ccc(OCC=C)cc2)cc1,–
13,23,14,42,35,21,–,–,–,–,–,COc1cc(/C=C2\CCC/C(=C\c3cc(OC)c(OC)c(OC)c3)C2=O)cc(OC)c1OC,inactive
6,23,18,8,19,18,–,–,–,–,–,C=CCOc1ccc(/C=C2\CCC/C(=C\c3ccc(OCC=C)cc3)C2=O)cc1,–
23,3,–,–,–,–,3.51,0.097,9,1.15,0.599,O=C1/C(=C/c2cccc(Br)c2)CC/C1=C\c1cccc(Br)c1,–
17,48,28,28,45,14,–,–,–,–,–,O=C1/C(=C/c2ccc(OC3CCCCO3)cc2)CCC/C1=C\c1ccc(OC2CCCCO2)cc1 (configuration not stated),inactive
